{
  "source": "patent US11684599B2",
  "about": "“Very-long-chain polyunsaturated fatty acids, elovanoid hydroxylated derivatives, and methods of use” (Board of Supervisors of Louisiana State University and …, priority 2017, dated 2023)",
  "key": {"[1]": {"tested_on": "rats with middle cerebral artery occlusion (MCAo)", "assay": "Ex vivo MRI (T2WI) lesion, core and penumbra volumes after MCAo", "assay_type": "in vivo, rat", "settings": "day 7, compared to CSF-treated group", "experimental": "Male Sprague-Dawley rats (Charles River Lab., Wilmington, Mass.) weighing 280-340 g were fasted overnight but allowed free access to water. Atropine sulfate (0.5 mg/kg, i.p.) was injected 10 mins before anesthesia. Anesthesia was induced with 3% isoflurane in a mixture of 70% nitrous oxide and 30% oxygen. All rats were orally intubated and mechanically ventilated. During ventilation, the animals were paralyzed with pancuronium bromide (0.6 mg/kg, i.p.). The catheters were implanted into the right femoral artery and vein for the blood sampling and infusion of drug. Serial analyses of arterial blood gases, plasma glucose, arterial blood pressure and heart beating rate were conducted before and during surgical procedure. Rectal (CMA/150 Temperature Controller, CMA/Microdialysis AB, Stockholm, Sweden) and cranial (temporalis muscle; Omega Engineering, Stamford, Conn.) temperatures were closely monitored before, during and after MCAo. Rectal temperature and body weight were monitored daily until sacrifice.\nRats underwent 2 h of right middle cerebral artery occlusion (MCAo) by an intraluminal-filament. In brief, the right common carotid artery (CCA) bifurcation was exposed through a midline neck incision and the occipital artery branches of the external carotid artery were isolated, ligated and dissected. After careful isolation of the internal carotid artery (ICA), a 3-0 monofilament coated with poly-L-lysine was advanced through the ICA to the MCA until mild resistance was felt. The neck incision was closed with a silk suture and the animals were then allowed to recover. After 2 h of MCAo, rats were re-anesthetized with the same anesthetic combination. Temperature probes were re-inserted, and intraluminal sutures were carefully removed. The animals given free access to food and water for 7 days.\nThirty minutes after suture removal, a brain infusion cannula was implanted into the right lateral ventricle for treatment administration in each rat. Rats were anesthetized with 3% isoflurane and were secured to a stereotaxic apparatus with skull leveled between bregma and lambda. A sterile stainless steel cannula (5-mm long) was implanted into the lateral ventricle using the stereotaxic coordinates (0.2 mm caudal to bregma, 2 mm lateral to midline, and 5 mm below the dura). Cannulas were removed after treatment was completed.\nElovanoids (ELV) as sodium salts (Na) or methyl esters (Me) were dissolved in artificial cerebral spinal fluid (CSF) and administered into right lateral ventricle 1 hour after 2 h of MCAo. The following ELVs were used: ELV-N32-Na, ELV-N32-Me, ELV-N34-Na and ELV-N34-Me (5 μg/[…]) or CSF (50 μl). All treatments were administered by a researcher blinded to the treatment groups. […]"}, "[2]": {"tested_on": "cerebral-cortical mixed neuronal cells", "assay": "Uncompensated oxidative stress (TNFα plus H2O2) of neurons in culture", "assay_type": "cell-based, rat", "settings": "200 nM; TNFα 10 ng/mL and H2O2 (50, 100 or 200 μM), 12 h", "source_text": "Primary cultures of cortical and hippocampal neurons were harvested from 18-day-old embryos (E18) taken from timed-pregnant, two-month-old Sprague-Dawley (SD) rats (Charles River Lab., Wilmington, Mass.). Briefly, timed-pregnant SD rats were euthanized and embryos were collected in sterile conditions. Embryonic brains were dissected out by forceps on ice and placed in a petri dish containing ice-cold Hank's Balanced Salt Solution (HBSS) (GIBCO). Meninges were removed under a dissecting microscope and cortical tissues were chopped into small pieces with micro-spring scissors. These tissues were transferred to 15 ml tubes containing trypsin-EDTA (0.025% in HBSS) and DNase I. The tubes were incubated in 37° C. chamber for 15 mins and were agitated every 5 mins. After stopping the trypsinization with 5 ml 10% FBS, these tissues were triturated 15 times with a fire polished Pasteur pipet. Cell clumps were left to settle for 2 mins and the supernatant was transferred to a 15 ml Eppendorf tube. The supernatant was filtered through a 70 μm pore-sized filter (Corning cell strainer) and centrifuged for 5 mins at 1000 rpm. The cells were then resuspended in Neurobasal medium (GIBCO) containing 2% B27 (GIBCO) and 2% N2 (GIBCO) supplements, along with 0.5 mM glutamine, 50 U/ml penicillin/streptomycin.\nCells were counted using a Neubauer hemocytometer. 1×10^6 cells were seeded on poly-D-lysine-coated 12 well cell culture dish (CORNING) and cultured in incubator (37° C., 5% CO2). Culture medium was first replaced after 24 h, then half of the medium was replaced with fresh medium every three days. As a result, approximately, 90% purity of neurons was obtained as determined by class-III-β tubulin, GFAP and Hoechst 33258 staining. […]\nOne 4×4 tile mosaic was acquired from the center of each well using a Zeiss 510 Meta laser confocal microscope and LSM 510 Meta software. […] An Otsu auto threshold was applied to each image of Hoechst-stained nuclei, and the area of each detected object was recorded. […]"}},
  "data": [
    {"smiles": "CC/C=C\\C[C@H](O)\\C=C/C=C/C=C/[C@H](O)C/C=C\\C/C=C\\CCCCCCCCCCCCCCC(=O)OC", "note": "[ELV-N34-Me, methyl (16Z,19Z,22R,23E,25E,27Z,29S,31Z)-22,29-dihydroxytetratriaconta-16,19,23,25,27,31-hexaenoate]", "values": [
      {"measurement": "reduction of total lesion volume", "setting": "[1]", "value": 91, "unit": "%"}
    ]},
    {"smiles": "CC/C=C\\C[C@H](O)\\C=C/C=C/C=C/[C@H](O)C/C=C\\C/C=C\\CCCCCCCCCCCCCCC(=O)[O-].[Na+]", "note": "[ELV-N34-Na, sodium (16Z,19Z,22R,23E,25E,27Z,29S,31Z)-22,29-dihydroxytetratriaconta-16,19,23,25,27,31-hexaenoate]", "values": [
      {"measurement": "neuroprotection against uncompensated oxidative stress", "setting": "[2]", "value": "neuroprotection elicited"},
      {"measurement": "reduction of total lesion volume", "setting": "[1]", "value": 99, "unit": "%"}
    ]},
    {"smiles": "CC/C=C\\C[C@H](O)\\C=C/C=C/C=C/[C@H](O)C/C=C\\C/C=C\\CCCCCCCCCCCCC(=O)[O-].[Na+]", "note": "[ELV-N32-Na, sodium (14Z,17Z,20R,21E,23E,25Z,27S,29Z)-20,27-dihydroxydotriaconta-14,17,21,23,25,29-hexaenoate]", "values": [
      {"measurement": "neuroprotection against uncompensated oxidative stress", "setting": "[2]", "value": "evoked neuroprotection"},
      {"measurement": "reduction of total lesion volume", "setting": "[1]", "value": 60, "unit": "%"}
    ]},
    {"smiles": "CC/C=C\\C[C@H](O)\\C=C/C=C/C=C/[C@H](O)C/C=C\\C/C=C\\CCCCCCCCCCCCC(=O)OC", "note": "[ELV-N32-Me, methyl (14Z,17Z,20R,21E,23E,25Z,27S,29Z)-20,27-dihydroxydotriaconta-14,17,21,23,25,29-hexaenoate]", "values": [
      {"measurement": "neuroprotection against uncompensated oxidative stress", "setting": "[2]", "value": "evoked neuroprotection"},
      {"measurement": "reduction of total lesion volume", "setting": "[1]", "value": 56, "unit": "%"}
    ]}
  ]
}
